PMC5428058, “Local delivery of novel MRTF/SRF inhibitors prevents scar tissue formation in a preclinical model of fibrosis” (Scientific Reports, 2017)

Assays:
[1] = test system: αSMA protein in human conjunctival fibroblasts; experiment: Western blot of αSMA protein expression; type: cell-based; settings: 10 or 25 μM, 48 hours
Protocol: Human conjunctival fibroblasts were lysed using 2x SDS sample buffer (100 mM Tris HCL ph6.8, 4% SDS, 20% glycerol, 200 mM dithiothreitol, 0.2% bromophenol blue). Equal amounts of protein were loaded onto and run on 4–12% NuPAGE Bis-Tris protein gels (Novex, Life Technologies). The gels were transferred onto nitrocellulose blotting membranes (Amersham, Life Sciences), and blocked in 3% non-fat milk in PBST (PBS 0.1% Tween) for 1 hour. The membranes were then incubated overnight at 4 °C in αSMA primary antibody (1:200, polyclonal rabbit, ab5694, Abcam). The next day, the membranes were washed three times for 10 minutes in PBST, and incubated for 1 hour at room temperature in anti-rabbit HRP (1:2500, Dako). The membranes were then washed three times for 10 minutes in PBST, treated with ECL solution (Amersham, Life sciences) for 5 minutes, and scanned on an Odyssey IR Imager (LI-COR).

[2] = test system: rabbit conjunctival fibroblasts; experiment: fibroblast-populated collagen contraction assay (rabbit); type: cell-based; settings: 7 days
Protocol: We screened two candidate MRTF/SRF pathway inhibitors, CCG-222740 and CCG-203971, using detached three-dimensional fibroblast-populated collagen gels[56], [57]. Human or rabbit conjunctival fibroblasts were seeded in a collagen Type I matrix (First Link UK Ltd, Birmingham, UK) at a concentration of 0.7 × 10^4 cells/ml. The fibroblast-populated collagen gel mixture was cast into the wells of MatTek dishes (MatTek Corp, MI, USA). The gels were detached from the edges of the well and 2 ml of growth medium were added to each well with 5, 25, 50, 75, or 100 μM of CCG-222740 or CCG-203971 or 0.1% DMSO control. Digital photographs were obtained daily and lattice areas were measured using Image J software (http://rsb.info.nih.gov/ij/). The gel size at day 7 was assessed as a percentage of lattice area on day 0. Each experiment was performed as triplicate gels per condition and the experiment was repeated on three separate days.

Structure (SMILES): O=C(Nc1ccc(Cl)cc1)C1CN(C(=O)c2cccc(-c3ccco3)c2)CC(F)(F)C1 (centres unmarked) [CCG-222740]
- αSMA protein expression, comparison [1]: more potent than CCG-203971 at decreasing αSMA protein expression
- decrease of collagen matrix contraction, comparison [2]: more effective at decreasing collagen matrix contraction than CCG-203971
